Data published in US5830855A, “Lipodepsipeptides as antifungal and fungicidal agents” (priority 1996, dated 1998).
Converted amounts (≈) assume the structure as drawn. Numbered stars: 1 amine (or outer) side, 2 acyl side, 3 side chain; on linkers, the order of the positions; unused ones are H or OH. Bridge positions count the residues as written; N and C are the ends. Square brackets hold non-standard residues; d marks the D form. Peptide text beside a SMILES is read from it. * marks the point of attachment. ξ: configuration not given here. Asp(3S-OH) = N[C@H](C(=O)O)[C@H](O)C(=O)O; Thr(4-Cl) = N[C@H](C(=O)O)[C@H](O)CCl; ξAsp(3ξ-OH) = NC(C(=O)O)C(O)C(=O)O; X3 = O=C(C(N[*:1])C(O)CCl)[*:2]; X1 = CCCCCCCCC[C@@H](O)CC(=O)*; X2 = CCCCCCCCCCCC(O)CC(=O)*; dDab = NCC[C@@H](N)C(=O)O; Dab = NCC[CH](N)C(=O)O; Orn = NCCC[CH](N)C(=O)O; hSer = N[CH](CCO)C(=O)O; Dhb = C/C=C(\N)C(=O)O

Experiments:
Type in all cases: cell-based
Cryptococcus neoformans [1] = assay: Broth microdilution MIC; conditions: for MIC range: Table 1 (MICs), Cryptococcus neoformans, 14 isolates, 72 hr
Description: (§1) Medium: Liquid RPMI 1640 (RPMI) medium with L-glutamine and without sodium bicarbonate (Sigma Chemical Co., R-6504; St. Louis, Mo.) buffered with 0.165M MOPS (34.54 g/liter) was used for in vitro antifungal tests. The medium was adjusted to pH 7.0 with 10M NaOH and filter sterilized.
(§2) Lipodepsipeptide Dilutions: All stock drug solution concentrations were at least 10-fold higher than the highest concentration tested. AmB, ketoconazole, and the test compounds (SR-E, ST-B, and SS-A) were dissolved in sterile distilled water, 0.2N HCl, and 0.001N HCl, respectively. Each stock solution was diluted to 2× the highest concentration of drug tested with RPMI. Two-fold dilutions were made with RPMI medium.
(§3) Preparation of Inoculum Suspensions: On Sabouraud dextose agar (SDA; BBL, Becton and Dickinson and Co., Cockeysville, Md.) all isolates were subcultured at least twice before use to ensure purity and viability. Candida spp. and Saccharomyces cerevisiae were grown for 24 hr at 35° C. Isolates of Cryptococcus neoformans were grown for 48 hr at 35° C. Yeast cells from at least five 1-mm-diameter colonies were suspended in 5 ml of sterile 0.85% saline. The resulting suspension was vortexed for 15 sec. The turbidity of each mixed suspension was measured at 530 nm and adjusted to 1×10^6 to 5×10^6 CFU/ml by the NCCLS spectrophotometric method described by National Committee for Clinical Laboratory Standards. 1992. Reference method for broth dilution antifungal susceptibility testing of yeasts; proposed standard, NCCLS document M27-P (ISBN 1-56238-186-5). NCCLS, Villanova. The final transmission of each yeast suspension ranged from 85-87%.
(§4) Aspergillus fumigatus and Mucor spp. were grown for 1 wk at 35° C. The dermatophytes, Microsporum spp. and Trichophyton spp., were grown for two wk at 30° C. Fungal spores were washed from the plates of all good spore formers (A. fumigatus, Mucor spp., Microsporum canis and Trichophyton spp.) by placing 5 ml of 0.85% saline with 0.2% Tween 80 on the plates and mixing with an inoculating loop. The spore/mycelium suspension was drawn off with a pipette and allowed to settle for at least 5 min. For the poor spore-forming Microsporum audouinii, the procedure was the same except the spore/mycelial suspension was homogenized with a ground glass tissue homogenizer and then allowed to settle for at least 5 min. A small amount of the supernatant was transferred to 5 ml of sterile saline and vortexed. The stock suspensions of all filamentous fungi were measured at 530 nm and adjusted to 85-87% transmission. The concentration (1×10^6 to 5×10^6 CFU/ml) was determined by hemacytometer count or plate count on SDA. All stock suspensions were diluted 1000-fold with RPMI, or 2× the final desired test inocula. The 2× inoculum was diluted 1:1 when the wells were inoculated, and the desired inoculum size was achieved.
(§5) Broth Microdilution Test: Broth microdilution tests were performed using sterile, disposable, multiwell microdilution plates (96 round U-bottom wells) (Falcon 3077; Becton and Dickinson Labware, Lincoln Park, N.J.). The drugs (2× concentrations) were dispensed into the wells of rows number 1 to 10 of the microdilution plates in 100 μl volumes from highest drug concentration to lowest drug concentration. Each well was inoculated with 100 μl of the corresponding 2× concentrated fungal suspension. The wells of row 11 contained the inoculum with drug-free media as a positive growth control and the wells of row 12 contained uninoculated-drug-free medium as a sterility control.
(§6) Incubation and Scoring of MIC: All cultures were incubated without shaking at the temperature used during subculture. Incubation times were 48 hr for Candida spp., S. cerevisiae, A. fumigatus, and Mucor spp; 72 hr for C. neoformans; and 7 days for Microsporum and Trichophyton spp. […]

Candida kefyr [2] = assay: Broth microdilution MIC; conditions: Table 1 (MICs), 1 isolate, 48 hr
Description: as §1, §2, §3, §4, §5, §6

Saccharomyces cerevisiae [3] = assay: Broth microdilution MIC; conditions: Table 1 (MICs), 1 strain tested more than once (control ATCC 36375), 48 hr
Description: as §1, §2, §3, §4, §5, §6

Microsporum spp. [4] = assay: Broth microdilution MIC; conditions: Table 1 (MICs), 2 isolates, 7 days
Description: as §1, §2, §3, §4, §5, §6

Trichophyton spp. [5] = assay: Broth microdilution MIC; conditions: Table 1 (MICs), 3 isolates, 7 days
Description: as §1, §2, §3, §4, §5, §6

Candida parapsilosis [6] = assay: Broth microdilution MIC; conditions: Table 1 (MICs), 2 isolates, 48 hr
Description: as §1, §2, §3, §4, §5, §6

Candida albicans [7] = assay: Broth microdilution MIC; conditions: Table 1 (MICs); Candida albicans, 20 isolates; RPMI pH 7.0, 48 hr; Ktz read at score 2, others at score 0
Description: as §1, §2, §3, §4, §5, §6

Candida rugosa [8] = assay: Broth microdilution MIC; conditions: Table 1 (MICs); Candida rugosa, 2 isolates; 48 hr
Description: as §1, §2, §3, §4, §5, §6

Candida lusitaniae [9] = assay: Broth microdilution MIC; conditions: Table 1 (MICs), 2 isolates, 48 hr
Description: as §1, §2, §3, §4, §5, §6

Candida tropicalis [10] = assay: Broth microdilution MIC; conditions: Table 1 (MICs); Candida tropicalis, 2 isolates; 48 hr
Description: as §1, §2, §3, §4, §5, §6

Aspergillus fumigatus = assay: Broth microdilution MIC; conditions: Table 1 (MICs), 16 isolates, 48 hr
Description: as §1, §2, §3, §4, §5, §6

Candida krusei [11] = assay: Broth microdilution MIC; conditions: Table 1 (MICs), 2 isolates, 48 hr
Description: as §1, §2, §3, §4, §5, §6

Cryptococcus neoformans [12] = assay: Minimum Fungicidal Concentration (MFC); conditions: Table 2, 14 isolates, 48 hr
Description: as §1, §2, §3, §4, §5, §6

Candida kefyr [13] = assay: Minimum Fungicidal Concentration (MFC); conditions: Table 2, 1 isolate, 24 hr
Description: as §1, §2, §3, §4, §5, §6

Saccharomyces cerevisiae [14] = assay: Minimum Fungicidal Concentration (MFC); conditions: Table 2, 1 strain tested more than once, 24 hr
Description: as §1, §2, §3, §4, §5, §6

Microsporum spp. [15] = assay: Minimum Fungicidal Concentration (MFC); conditions: Table 2, 2 isolates, 7 d
Description: as §1, §2, §3, §4, §5, §6

Trichophyton spp. [16] = assay: Minimum Fungicidal Concentration (MFC); conditions: Table 2, 3 isolates, 7 d
Description: as §1, §2, §3, §4, §5, §6

Candida parapsilosis [17] = assay: Minimum Fungicidal Concentration (MFC); conditions: Table 2, 2 isolates, 24 hr
Description: as §1, §2, §3, §4, §5, §6

Candida albicans [18] = assay: Minimum Fungicidal Concentration (MFC); conditions: Table 2, 20 isolates, subculture on drug-free SDA 24 hr
Description: as §1, §2, §3, §4, §5, §6

Candida rugosa [19] = assay: Minimum Fungicidal Concentration (MFC); conditions: Table 2, 2 isolates, 24 hr
Description: as §1, §2, §3, §4, §5, §6

Candida lusitaniae [20] = assay: Minimum Fungicidal Concentration (MFC); conditions: Table 2, 2 isolates, 24 hr
Description: as §1, §2, §3, §4, §5, §6

Candida tropicalis [21] = assay: Minimum Fungicidal Concentration (MFC); conditions: Table 2, 2 isolates, 24 hr
Description: as §1, §2, §3, §4, §5, §6

Candida krusei [22] = assay: Minimum Fungicidal Concentration (MFC); conditions: Table 2, 2 isolates, 24 hr
Description: as §1, §2, §3, §4, §5, §6

SMILES	MIC range (Cryptococcus neoformans [1])	MIC (μg/ml) range (Candida kefyr [2])	MFC (μg/ml) range (Saccharomyces cerevisiae [3])	MIC range (Microsporum spp. [4])	MIC range (Trichophyton spp. [5])	MIC range (Candida parapsilosis [6])	MIC range (Candida albicans [7])	MIC range (Candida rugosa [8])	MIC range (Candida lusitaniae [9])	MIC (μg/ml) range (Candida tropicalis [10])	MIC range (Aspergillus fumigatus)	MIC (μg/ml) range (Candida krusei [11])	MFC (μg/ml) range (Cryptococcus neoformans [12])	MFC (μg/ml) range (Candida kefyr [13])	MFC (μg/ml) range (Saccharomyces cerevisiae [14])	MFC (μg/ml) range (Microsporum spp. [15])	MFC (μg/ml) range (Trichophyton spp. [16])	MFC (μg/ml) range (Candida parapsilosis [17])	MFC (μg/ml) range (Candida albicans [18])	MFC (μg/ml) range (Candida rugosa [19])	also measured
C/C=C1\NC(=O)[C@H](Cc2ccccc2)NC(=O)[C@H](CCCN=C(N)N)NC(=O)[C@@H](CCN)NC(=O)[C@H](CCN)NC(=O)[C@@H](CO)NC(=O)[C@@H](NC(=O)C[C@H](O)CCCCCCCCC)COC(=O)[C@H]([C@H](O)CCl)NC(=O)[C@H]([C@H](O)C(=O)O)NC1=O [SR-E, Syringomycin-E] (X1-S[dS][Dab][dDab]RF[Dhb][Asp(3S-OH)][Thr(4-Cl)]; ester 1-C)	2.5 to 10 µg/mL	2.5 µg/mL (≈ 2.04 µM)	2.5 µg/mL (≈ 2.04 µM)	6.25 to 12.5 µg/mL	3.1 to 6.25 µg/mL	2.5 µg/mL (≈ 2.04 µM)	2.5 to 5 µg/mL	5 to 20 µg/mL	2.5 µg/mL (≈ 2.04 µM)	2.5 to 5 µg/mL	10 to 20 µg/mL	10 µg/mL (≈ 8.16 µM)	2.5 to 10 µg/mL	2.5 µg/mL (≈ 2.04 µM)	2.5 µg/mL (≈ 2.04 µM)	6.25 to 12.5 µg/mL	6.25 to 25 µg/mL	2.5 µg/mL (≈ 2.04 µM)	2.5 to 5 µg/mL	10 to 20 µg/mL	MFC (μg/ml) range (Candida lusitaniae [20]): 2.5 to 5 µg/mL; MFC (μg/ml) range (Candida tropicalis [21]): 5 µg/mL (≈ 4.08 µM); MFC (μg/ml) range (Candida krusei [22]): 10 µg/mL (≈ 8.16 µM)
C/C=C1\NC(=O)C(C(C)O)NC(=O)C(CCCN)NC(=O)C(CCO)NC(=O)CNC(=O)C(CCN)NC(=O)C(NC(=O)CC(O)CCCCCCCCCCC)COC(=O)C(C(O)CCl)NC(=O)C(C(O)C(=O)O)NC1=O (centres unmarked) [ST-B, Syringotoxin B] (X2-S[Dab]G[hSer][Orn]T[Dhb][ξAsp(3ξ-OH)][X3]; ester 1-C; configuration not given here)	0.8 to 6.25 µg/mL	3.2 µg/mL (≈ 2.82 µM)	6.25 µg/mL (≈ 5.5 µM)	25 to 200 µg/mL	25 to 200 µg/mL	6.25 to 12.5 µg/mL	3.2 to 12.5 µg/mL	3.2 to 25 µg/mL	6.25 µg/mL (≈ 5.5 µM)	3.2 µg/mL (≈ 2.82 µM)	6.25 to 25 µg/mL	12.5 to 25 µg/mL	0.8 to 12.5 µg/mL	3.2 µg/mL (≈ 2.82 µM)	12.5 to 25 µg/mL	25 to 200 µg/mL	25 to 200 µg/mL	12.5 to 25 µg/mL	3.2 to 12.5 µg/mL	6.25 to 50 µg/mL	MIC, one strain of C. neoformans (Cryptococcus neoformans [1]; one strain of C. neoformans, very sensitive to ST-B, somewhat resistant to AmB): 0.8 µg/mL; MFC (μg/ml) range (Candida lusitaniae [20]): 6.25 to 12.5 µg/mL; MFC (μg/ml) range (Candida tropicalis [21]): 12.5 µg/mL (≈ 11 µM); MFC (μg/ml) range (Candida krusei [22]): 12.5 to 50 µg/mL
